Here are results for 4 molecules from US11034650B2, “Compounds useful for treating a Mannheimia haemolytica or Histophilus somni infection” (Intervet Inc., priority 2016, dated 2021).

≈ marks a conversion by molar mass, not a printed value.

One experiment deals with Mannheimia haemolytica MH 6357 (M7/2, reference strain, cattle infection strain). Description: MIC, broth-microdilution (CLSI VET01-A4), strain MH 6357. The class given is cell-based. To be noted: Mannheimia haemolytica strain MH 6357, broth-microdilution; unit assumed. The essentials:
(§1)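 Growth inhibition is scored visually on a doubling dilution series. The reported MIC corresponds to the lowest concentration free of turbidity, with results assessed under CLSI VET01-S3.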
(In general: Broth dilution looks for growth in wells or tubes with falling amounts of substance.)
With `CC(C)(O)[C@H](NC(=O)c1ccc(C#Cc2ccc(CNCc3ccccc3)s2)cc1)C(=O)NO` [Compound 294], the MIC MH 6357 is at most 0.1 µg/mL.

Molecule `CC(C)(O)[C@H](NC(=O)c1ccc(C#Cc2ccc(CNCC(F)(F)F)nc2)cc1)C(=O)NO` [Compound 333] yielded an MIC MH 6357 of 0.4 µg/mL (≈ 0.861 µM).

`COCCNCc1ccc(C#Cc2ccc(C(=O)N[C@H](C(=O)NO)C(C)=NOC)cc2)cc1` [Compound 380] returned an MIC MH 6357 of 3.1 µg/mL (≈ 6.85 µM).

`CC(C)[C@H](NC(=O)c1ccc(C#Cc2ccc(CNCc3cccnc3)cc2)cc1)C(=O)NO` [Compound 167] gave an MIC MH 6357 of 0.4 µg/mL (≈ 0.876 µM).

Another experiment has as its system Mannheimia haemolytica MH 6374 (ATCC 33396, reference strain). Description: MIC, broth-microdilution (CLSI VET01-A4), strain MH 6374. The class given is cell-based. Conditions: Mannheimia haemolytica strain MH 6374, broth-microdilution; unit assumed. The method, boiled down:
as §1
The molecule `CC(C)(O)[C@H](NC(=O)c1ccc(C#Cc2ccc(CNCc3ccccc3)s2)cc1)C(=O)NO` [Compound 294] gave an MIC MH 6374 of 0.2 µg/mL (≈ 0.419 µM).

For the molecule `CC(C)(O)[C@H](NC(=O)c1ccc(C#Cc2ccc(CNCC(F)(F)F)nc2)cc1)C(=O)NO` [Compound 333], the MIC MH 6374 came out at 0.8 µg/mL (≈ 1.72 µM).

On to `COCCNCc1ccc(C#Cc2ccc(C(=O)N[C@H](C(=O)NO)C(C)=NOC)cc2)cc1` [Compound 380], for which the MIC MH 6374 was 6.3 µg/mL (≈ 13.9 µM).

Molecule `CC(C)[C@H](NC(=O)c1ccc(C#Cc2ccc(CNCc3cccnc3)cc2)cc1)C(=O)NO` [Compound 167] had an MIC MH 6374 of 0.4 µg/mL (≈ 0.876 µM).

A further experiment concerns Mannheimia haemolytica MH 10720 (154, BRD field isolate). The experiment in a line: MIC, broth-microdilution (CLSI VET01-A4), strain MH 10720. Type of experiment: cell-based. To be noted: Mannheimia haemolytica strain MH 10720, broth-microdilution; unit assumed. The essentials: as §1
For the molecule `CC(C)(O)[C@H](NC(=O)c1ccc(C#Cc2ccc(CNCc3ccccc3)s2)cc1)C(=O)NO` [Compound 294], the MIC MH 10720 was at most 0.1 µg/mL.

Turning to `CC(C)(O)[C@H](NC(=O)c1ccc(C#Cc2ccc(CNCC(F)(F)F)nc2)cc1)C(=O)NO` [Compound 333], the MIC MH 10720 was at most 0.1 µg/mL.

As to `COCCNCc1ccc(C#Cc2ccc(C(=O)N[C@H](C(=O)NO)C(C)=NOC)cc2)cc1` [Compound 380], the MIC MH 10720 was found to be 3.1 µg/mL (≈ 6.85 µM).

For `CC(C)[C@H](NC(=O)c1ccc(C#Cc2ccc(CNCc3cccnc3)cc2)cc1)C(=O)NO` [Compound 167], the MIC MH 10720 is at most 0.1 µg/mL.

In a further experiment the test system is Mannheimia haemolytica MH 12587 (1071, BRD field isolate, macrolide-resistance: erm+, E+). Description: MIC, broth-microdilution (CLSI VET01-A4), strain MH 12587. The class given is cell-based. Conditions: Mannheimia haemolytica strain MH 12587, broth-microdilution; unit assumed. The essentials: as §1
`CC(C)(O)[C@H](NC(=O)c1ccc(C#Cc2ccc(CNCc3ccccc3)s2)cc1)C(=O)NO` [Compound 294] displayed an MIC MH 12587 of 0.4 µg/mL (≈ 0.838 µM).

Regarding `CC(C)(O)[C@H](NC(=O)c1ccc(C#Cc2ccc(CNCC(F)(F)F)nc2)cc1)C(=O)NO` [Compound 333], the MIC MH 12587 worked out at 1.6 µg/mL (≈ 3.44 µM).

As for `COCCNCc1ccc(C#Cc2ccc(C(=O)N[C@H](C(=O)NO)C(C)=NOC)cc2)cc1` [Compound 380], the MIC MH 12587 was 0.8 µg/mL (≈ 1.77 µM).

For the molecule `CC(C)[C@H](NC(=O)c1ccc(C#Cc2ccc(CNCc3cccnc3)cc2)cc1)C(=O)NO` [Compound 167], the MIC MH 12587 came out at 0.8 µg/mL (≈ 1.75 µM).

A further experiment deals with Mannheimia haemolytica MH 13065 (XB0446-6003.9, BRD field isolate). The experiment in a line: MIC, broth-microdilution (CLSI VET01-A4), strain MH 13065. Conditions: Mannheimia haemolytica strain MH 13065, broth-microdilution; unit assumed. Type of experiment: cell-based. The method, boiled down:
as §1
As for `CC(C)(O)[C@H](NC(=O)c1ccc(C#Cc2ccc(CNCc3ccccc3)s2)cc1)C(=O)NO` [Compound 294], the MIC MH 13065 is at most 0.1 µg/mL.

As for `CC(C)(O)[C@H](NC(=O)c1ccc(C#Cc2ccc(CNCC(F)(F)F)nc2)cc1)C(=O)NO` [Compound 333], the MIC MH 13065 worked out at 0.8 µg/mL (≈ 1.72 µM).

Take `COCCNCc1ccc(C#Cc2ccc(C(=O)N[C@H](C(=O)NO)C(C)=NOC)cc2)cc1` [Compound 380]: the MIC MH 13065 worked out at 3.1 µg/mL (≈ 6.85 µM).

Take `CC(C)[C@H](NC(=O)c1ccc(C#Cc2ccc(CNCc3cccnc3)cc2)cc1)C(=O)NO` [Compound 167]: the MIC MH 13065 came to 0.8 µg/mL (≈ 1.75 µM).

The subject of another experiment is Mannheimia haemolytica MH 13093 (XB0472-6014.1, BRD field isolate). The experiment in a line: MIC, broth-microdilution (CLSI VET01-A4), strain MH 13093. The class given is cell-based. To be noted: Mannheimia haemolytica strain MH 13093, broth-microdilution; unit assumed. The method, boiled down:
as §1
`CC(C)(O)[C@H](NC(=O)c1ccc(C#Cc2ccc(CNCc3ccccc3)s2)cc1)C(=O)NO` [Compound 294] gave an MIC MH 13093 of 0.4 µg/mL (≈ 0.838 µM).

The molecule `CC(C)(O)[C@H](NC(=O)c1ccc(C#Cc2ccc(CNCC(F)(F)F)nc2)cc1)C(=O)NO` [Compound 333] registered an MIC MH 13093 of 1.6 µg/mL (≈ 3.44 µM).

Consider `COCCNCc1ccc(C#Cc2ccc(C(=O)N[C@H](C(=O)NO)C(C)=NOC)cc2)cc1` [Compound 380], for which the MIC MH 13093 turned out to be 6.3 µg/mL (≈ 13.9 µM).

`CC(C)[C@H](NC(=O)c1ccc(C#Cc2ccc(CNCc3cccnc3)cc2)cc1)C(=O)NO` [Compound 167] showed an MIC MH 13093 of 0.8 µg/mL (≈ 1.75 µM).

The test system of a further experiment is Pasteurella multocida PM 6267 (P 2225 (L386), reference strain, mouse infection strain). Description: MIC, broth-microdilution (CLSI VET01-A4), strain PM 6267. Type of experiment: cell-based. Conditions: Pasteurella multocida strain PM 6267, broth-microdilution; unit assumed. The essentials:
as §1
The molecule `CC(C)(O)[C@H](NC(=O)c1ccc(C#Cc2ccc(CNCc3ccccc3)s2)cc1)C(=O)NO` [Compound 294] showed an MIC PM 6267 of 0.8 µg/mL (≈ 1.68 µM).

In the case of `CC(C)(O)[C@H](NC(=O)c1ccc(C#Cc2ccc(CNCC(F)(F)F)nc2)cc1)C(=O)NO` [Compound 333], the MIC PM 6267 is 0.4 µg/mL (≈ 0.861 µM).

As for `COCCNCc1ccc(C#Cc2ccc(C(=O)N[C@H](C(=O)NO)C(C)=NOC)cc2)cc1` [Compound 380], the MIC PM 6267 amounted to 6.3 µg/mL (≈ 13.9 µM).

Molecule `CC(C)[C@H](NC(=O)c1ccc(C#Cc2ccc(CNCc3cccnc3)cc2)cc1)C(=O)NO` [Compound 167] displayed an MIC PM 6267 of at most 0.1 µg/mL.

The subject of a further experiment is Pasteurella multocida PM 6391 (ATCC 43137, reference strain). The experiment in a line: MIC, broth-microdilution (CLSI VET01-A4), strain PM 6391. The class given is cell-based. To be noted: Pasteurella multocida strain PM 6391, broth-microdilution; unit assumed. The method, boiled down:
as §1
On to `CC(C)(O)[C@H](NC(=O)c1ccc(C#Cc2ccc(CNCc3ccccc3)s2)cc1)C(=O)NO` [Compound 294], for which the MIC PM 6391 came out at 0.2 µg/mL (≈ 0.419 µM).

The molecule `CC(C)(O)[C@H](NC(=O)c1ccc(C#Cc2ccc(CNCC(F)(F)F)nc2)cc1)C(=O)NO` [Compound 333] yielded an MIC PM 6391 of 0.4 µg/mL (≈ 0.861 µM).

Take `COCCNCc1ccc(C#Cc2ccc(C(=O)N[C@H](C(=O)NO)C(C)=NOC)cc2)cc1` [Compound 380]: the MIC PM 6391 came out at 0.2 µg/mL (≈ 0.442 µM).

Turning to `CC(C)[C@H](NC(=O)c1ccc(C#Cc2ccc(CNCc3cccnc3)cc2)cc1)C(=O)NO` [Compound 167], the MIC PM 6391 amounted to 0.4 µg/mL (≈ 0.876 µM).

The subject of a further experiment is Pasteurella multocida PM 10775 (080130003051, BRD field isolate). Description: MIC, broth-microdilution (CLSI VET01-A4), strain PM 10775. Type of experiment: cell-based. Conditions: Pasteurella multocida strain PM 10775, broth-microdilution; unit assumed. The method, boiled down:
as §1
As for `CC(C)(O)[C@H](NC(=O)c1ccc(C#Cc2ccc(CNCc3ccccc3)s2)cc1)C(=O)NO` [Compound 294], the MIC PM 10775 was at most 0.1 µg/mL.

With `CC(C)(O)[C@H](NC(=O)c1ccc(C#Cc2ccc(CNCC(F)(F)F)nc2)cc1)C(=O)NO` [Compound 333], the MIC PM 10775 is at most 0.1 µg/mL.

Regarding `COCCNCc1ccc(C#Cc2ccc(C(=O)N[C@H](C(=O)NO)C(C)=NOC)cc2)cc1` [Compound 380], the MIC PM 10775 was 1.6 µg/mL (≈ 3.54 µM).

In the case of `CC(C)[C@H](NC(=O)c1ccc(C#Cc2ccc(CNCc3cccnc3)cc2)cc1)C(=O)NO` [Compound 167], the MIC PM 10775 is at most 0.1 µg/mL.

The test system of another experiment is Pasteurella multocida PM 12080 (IV102277-0093, BRD field isolate). The experiment in a line: MIC, broth-microdilution (CLSI VET01-A4), strain PM 12080. Type of experiment: cell-based. To be noted: Pasteurella multocida strain PM 12080, broth-microdilution; unit assumed. The method, boiled down:
as §1
`CC(C)(O)[C@H](NC(=O)c1ccc(C#Cc2ccc(CNCc3ccccc3)s2)cc1)C(=O)NO` [Compound 294]: the MIC PM 12080 was at most 0.1 µg/mL.

For the molecule `CC(C)(O)[C@H](NC(=O)c1ccc(C#Cc2ccc(CNCC(F)(F)F)nc2)cc1)C(=O)NO` [Compound 333], the MIC PM 12080 was 0.2 µg/mL (≈ 0.431 µM).

In the case of `COCCNCc1ccc(C#Cc2ccc(C(=O)N[C@H](C(=O)NO)C(C)=NOC)cc2)cc1` [Compound 380], the MIC PM 12080 stood at 0.8 µg/mL (≈ 1.77 µM).

For the molecule `CC(C)[C@H](NC(=O)c1ccc(C#Cc2ccc(CNCc3cccnc3)cc2)cc1)C(=O)NO` [Compound 167], the MIC PM 12080 was 0.2 µg/mL (≈ 0.438 µM).
